In US8114895B2, “Use of bipyridine compound ‘Caerulomycin A’ derivatives and analogs thereof as immunosuppressive agents” (Council of Science and Industrial Research, priority 2005, dated 2012):

Legend:
CD4^+ T cells = assay: Proliferation of CD4+ T cells obtained from antigen-primed animals; format: cell-based; conditions: CD4+ T cells from OVA-FCA injected mice, stimulated with antigen-pulsed γ-irradiated splenocytes
Protocol: A single cell suspension of mice splenocytes obtained from OVA-CFA primed mice. The red blood cells were depleted by treatment with hemolytic Gey's solution. The adherent cells were removed by plating onto plastic Petri plates for 2 h at 37° C. and 7% CO2. The non-adherent cells were loaded (1×10^6 cells/ml) onto the nylon wool column and incubated for 90 min at 37° C. After the incubation period, warm RPMI was passed into the column to elute T lymphocytes. The T cells were washed with RPMI and incubated with anti-Mac3 (TIB-168), anti-IA^d (MKD6), anti-dendritic cell (TIB-227), anti-IgM and anti-CD8 Abs for 45 min at 4° C. […] The purity of the cells was analyzed by flow-cytometry of the cells stained with anti-CD3 and CD4 Abs. […]
Examples establishing the role of Caerulomycin A [isolated from a novel species of Actinoalloteichus] in inducing immunosuppression based on the following: • Splenocytes of BALB/c mice were stimulated with either ConA (1 μg/ml and 2 μg/ml) or LPS (5 μg/ml and 10 μg/ml) and were cultured with different concentrations of Caerulomycin A (0.0003-0.1 μg/ml). […] Radioactivity incorporated was measured by liquid scintillation counting. • Antigen ovalbumin (100 μg/ml) emulsified in Freund's complete adjuvant was injected in a group consisting of 5 BALB/c mice. […] Radioactivity incorporated was measured by liquid scintillation. […]

peritoneal macrophages = assay: Expression of B7-1, B7-2, CD40 and IA^d on peritoneal macrophages by flow cytometry; format: cell-based, BALB/c mice
Protocol: The expression of B7-1 and B7-2 was detected on the surface of peritoneal macrophages incubated with different concentrations of Caerulomycin A (0.05-0.1 μg/ml). Peritoneal macrophages were harvested from BALB/c mice inoculated 4 days previously with 2-3 ml of thioglycolate. The cells were washed with BSS. The macrophages were obtained by adhering for 1 h at 37° C. on plastic Petri dishes followed by washing several times in cold BSS. The macrophages (1×10^6) were stimulated with 10 μg/ml of LPS for 24, 48 and 72 h in the presence and absence of Caerulomycin A (0.05-0.1 μg/ml) at 37° C. and 7% CO2. Then the cells were harvested and stained with their respective antibodies. Briefly, the cells were centrifuged (1200×g, 4° C., 5 min) and the supernatant was aspirated. The cells were washed 3× with 1% BSA, 0.1% sodium azide in PBS. In the first step, the cells (1×10^6) were incubated with biotinylated anti-mouse B7-1, CD40 and I-A^d (1 μg/100 μl) Abs for 45 min at 4° C. In the next step cells were stained with streptavidin FITC (0.5 μg/100 μl) or PE conjugated anti-mouse B7-2 (0.5 μg/100 μl) Abs and incubated for 45 min. Usual steps of washing were followed at each step. Finally the cells were washed five times and fixed in paraformaldehyde. The stained cells were acquired on a FACScan as mentioned for CD28/CTLA-4. Since the antigen presenting cells express B7-1 and B7-2, which are the ligands of CTLA-4 and CD28. […] The expression of IA^d was detected on the surface of peritoneal macrophages incubated with different concentrations of Caerulomycin A (0.05-0.1 μg/ml). Peritoneal macrophages were harvested from BALB/c mice inoculated 4 days previously with 2-3 ml of thioglycolate. The cells were washed with BSS. The macrophages were obtained by adhering for 1 h at 37° C. on plastic Petri dishes followed by washing several times in cold BSS. The macrophages (1×10^6) were stimulated with 10 μg/ml of LPS for 24, 48 and 72 h in the presence and absence of Caerulomycin A (0.05-0.1 μg/ml) at 37° C. and 7% CO2. Then the cells were harvested and stained with their respective antibodies. Briefly, the cells were centrifuged (1200×g, 4° C., 5 min) and the supernatant was aspirated. The cells were washed 3× with 1% BSA, 0.1% sodium azide in PBS. In the first step, the cells (1×10^6) were incubated with biotinylated anti-mouse I-A^d (1 μg/100 μl) Abs for 45 min at 4° C. In the next step cells were stained with streptavidin FITC (0.5 μg/100 μl) and incubated for 45 min. Usual steps of washing were followed at each step. Finally the cells were washed five times and fixed in paraformaldehyde. The stained cells were acquired on a FACScan as mentioned for CD28/CTLA-4. […] This may indicate that Caerulomycin A may inhibit the processing and presentation of antigen by APC.

J774 = assay: Expression of B7-1 and B7-2 on J774; format: cell-based
[1] = LPS 10 μg/ml, Caerulomycin A 0.05-0.1 μg/ml

SMILES: COc1cc(/C=N/O)nc(-c2ccccn2)c1 [Caerulomycin A, (E)-4-methoxy-2,2′-bipyridine-6-carbaldehyde oxime]
- proliferation of antigen stimulated CD4+ T cells (CD4^+ T cells): significantly suppressed the proliferation
- display of B7-2 (peritoneal macrophages; [1]): decreased the display
- expression of B7-1 (peritoneal macrophages; [1]): enhanced the expression
- expression of IA^d (peritoneal macrophages; [1]): down regulated the expression
- expression of CD40 (peritoneal macrophages; after 72 h): Slight increase in the expression
- expression of B7-1 (J774): no major change
- expression of B7-2 (J774): increased the expression
